Patent publication US20140187627A1, “USES OF C15-SUBSTITUTED ANDROGRAPHOLIDE DERIVATIVES IN THE PREPARATION OF ANTI-HEPATITIS B VIRUS MEDICAMENT” (ZHENGZHOU UNIVERSITY, priority 2011, published 2014)
Values joined by “and” are separate entries in the source; they are usually repeats but may differ in a detail not shown here. Equal values may be shown once.

Tests used:
HBV = details: cited from earlier work
[1] = test system: HBV surface antigen (HBsAg) of HBV-transfected HepG2.2.15 cell line; test: Inhibition of HBsAg secretion in culture supernatant of HepG2.2.15 cells (ELISA), with MTT cytotoxicity for therapeutic index; assay type: cell-based, Hepatitis B virus
Description: HepG2.2.15 cell line, stably transfected with HBV-DNA, was used to evaluate the inhibition of the compounds against the HBV surface antigen (HBsAg) level in the culture supernatant of HepG2.2.15 cell. HepG2.2.15 cells were seeded at a density of 1.25×10^4 cells/well into 48-well plates, 0.5 ml RPMI1640 medium containing 10% fetal bovine serum, 100 unit/ml penicillin, 100 μg/ml streptomycin and 380 μg/ml geneticin (G418) was added to the well. Cells were incubated at 37° C. in a humidified incubator of 5% CO2 for 24 h, and then the culture medium was replaced by fresh medium containing Lamivudine (the positive drug) and compounds of this invention at five concentrations. The culture medium was replaced by a fresh one after 3 days and 6 days incubation, respectively. On d9, the supernatant was collected to determine the HBsAg level and the cells were used to assay the viability by MTT method.
Add 100 μl PBS solution containing 0.5 mg/ml MTT [3-(4,5-dimethylthiazol-2-yl)-2,5diphenyltetrazolium bromide] to the well after removing the supernatant, incubate at 37° C. for 4 h, remove the medium, add […] of DMSO to each well and the plates were shaken for 10 min. The optical density value (A) of each well was read using a PowerWaveX Microplate Scanning Spectrophotometer (Bio-tek Instruments, Inc) at 490 nm. Cells survival rate was calculated. […]

SMILES: C=C1CCC2C(C)(COC(=O)c3cccnc3)C(OC(=O)c3cccnc3)CCC2(C)C1C=CC1=CC(=Cc2ccc(Cl)cc2)OC1=O (stereo not drawn) [15-p-chlorobenzylidene-14-deoxy-11, 12-didehydro-3, 19-dinicotinate-andrographolide]
- Anti-HBV effect in vitro (HBV): anti-HBV effect in vitro

SMILES: Nc1ccn([C@@H]2CS[C@H](CO)O2)c(=O)n1 [Lamivudine]
- Therapeutic index (TI = TC50/IC50) ([1]; HepG2.2.15 cells, treated for 9d, TC50 by MTT): greater than 2
- IC50 ([1]; Hepatitis B virus, HepG2.2.15, 216 h, read-out: IC50 against HBsAg secretion): ~10 µg/mL and ~43.7 µM
